Results as given in paper PMC8157322, “Gd(III)–Pt(IV) theranostic contrast agents for tandem MR imaging and chemotherapy” (Chemical Science, 2020).

Legend:
HeLa cells [1] = assay: MR imaging of cell pellets at 7 T; format: cell-based; conditions: 6 h incubation, cisplatin 15 μM, 1 100 μM, GP1 60 μM, GP2 250 μM
A2780 cells [2] = assay: Cell viability assay (CellTiter-Glo 2.0); format: cell-based
Method: (§1) To assess the cytotoxicity of GP1 and GP2in vitro, cell viability assays were performed to determine the IC50 concentrations in three cancer cell lines (A2780, HeLa, and MCF-7). Table 2 summarizes the IC50 concentrations of both agents compared to those of cisplatin and carboplatin. […] For all cell lines, GP1 was less toxic than cisplatin but followed the same trend of highest toxicity in A2780 cells and least toxic in MCF-7 cells. GP1 releases cisplatin intracellularly, therefore the apparent difference in toxicity of the two is likely due to decreased cell permeability of GP1 caused by the Gd(III) complex. However, because GP1 is inert in the extracellular matrix, higher doses can be safely administered to account for the decreased cell permeability. […]
(§2) lines were grown in a humidified incubator at 37 °C and 5% CO2 and were harvested using 0.25% TrypLE. Cells were grown for 24 hours after plating before each experiment. All solutions were filtered through […] sterile filters before use.
(§3) Viability Assays. A2780, HeLa, and MCF-7 cells were plated at a density of 3,000 cells per well (100 µL) in an opaque white 96-well plate. Cells were dosed with 100 µL of solutions of GP1, GP2, cisplatin, or carboplatin in MEM and incubated for 48 hours (GP1 or cisplatin) or 72 hours (GP2 or carboplatin). After incubation, 50 µL CellTiter-Glo 2.0 (Promega, Madison, WI) was added to each well and the assay was carried out following the manufacturer’s protocol.
(§4) Luminescence of the wells was measured using a Synergy H1 microplate reader (BioTek, Winooski, VT). Viability was determined by comparing luminescence readings of the cells treated with agent to untreated control cells. […]

HeLa cells [3] = assay: Cell viability assay (CellTiter-Glo 2.0); format: cell-based
Method: as §1, §2, §3, §4

MCF-7 cells = assay: Cell viability assay (CellTiter-Glo 2.0); format: cell-based
Method: as §1, §2, §3, §4

A2780 cells [4] = assay: MR imaging of cell pellets at 7 T; format: cell-based; conditions: A2780, 7 T, 6 h incubation; cisplatin 7.5 μM, 1 100 μM, GP1 30 μM, GP2 60 μM
[5] = Aqueous solubility (qualitative); format: physicochemical; conditions: aqueous solutions / solvents
A2780 cells [6] = assay: Concentration-dependent cell uptake, Gd and Pt by ICP-MS; format: cell-based; conditions: incubated near IC50 concentrations, 24 h
Method: (§5) Accumulation of GP1 and GP2 in cells was measured by concentration-dependent uptake experiments in A2780 and HeLa cells. Individual concentration-dependent uptake graphs are found in the ESI. ^†Table 3 compares the accumulation of Gd and Pt in A2780 and HeLa cells that were incubated with GP1, GP2, cisplatin, and carboplatin near their respective IC50 concentrations. For comparison, both cell lines were dosed with complex 1 at similar concentrations as GP1 and GP2. […] First, the accumulation of Gd in both cell lines for both agents is higher than what is typically considered the amount necessary for detection by MR (high μM concentrations).[32,33] […]
as §4
(§6) Aliquots of cell suspensions were mixed with the Guava ViaCount Reagent and allowed to stain for 5 minutes. The samples were vortexed for 20 seconds and cell count was determined via manual analysis using a Guava EasyCyte Mini PCA and ViaCount software. […] Performance of the instrument was assessed daily using Guava-Check Beads and the manufacturer’s protocol and Daily Check software.
(§7) Quantification of Gadolinium and Platinum with Inductively Coupled Plasma Mass Spectrometry. […]

HeLa cells [7] = assay: as above; format: cell-based; conditions: incubated near IC50 concentrations, 24 h
Method: as §5, §4, §6, §7

[8] = Relaxivity after incubation in 5 mM GSH in PBS; format: physicochemical; conditions: 1.41 T, PBS with 5 mM glutathione, 37 °C
Method: This is possibly due to an increase in the rotational correlation time (τR) or a change in the inner sphere hydration number (q) of Gd(III). The differences in relaxivity of GP1 and GP2 compared to 1 offers the possibility of monitoring reduction of the agents by MR at both high and low field strength. To test this, GP1, GP2, and 1 were incubated in 5 mM GSH in PBS and the relaxivity was measured (see ESI ^†). The relaxivity of each converged to the same value (r1 of 4.4, 4.5, and 4.6 mM^−1 s^−1 for 1, GP1, and GP2 respectively), indicating the same Gd(III) species was formed after reduction. The significant change in r1 upon reduction of GP1 and GP2 theoretically could be used to monitor intracellular reduction by MR. However, further testing needs to be done to determine if these agents are suitable for this application.
(§8) Fig. S2 Graph of r1 of (A) GP1 measured at 1.41 T (B) GP1 measured at 7 T (C) GP2 measured at 1.41 T
(D) GP2 measured at 7 T (E) 1 measured at 1.41 T (F) 1 measured at 7 T. All measurements were taken
in PBS at 37 °C (G) 1 measured at 1.41 T with 5 mM GSH (H) GP1 measured at 1.41 T with 5 mM GSH
and (I) GP2 measured at 1.41 T with 5 mM GSH.
(§9) Table S1. r1 of GP1, GP2, and 1 in PBS with 5 mM glutathione at 37 °C
(§10) GP1 (5 mM GSH) GP2 (5 mM GSH) 1 (5 mM GSH)

[9] = T1/T2 relaxivity measurements in PBS; format: physicochemical; conditions: 37 °C
Method: The T1 relaxivity (r1) and T2 relaxivity (r2) of 1, GP1, and GP2 were measured at both low (1.41 T) and high (7 T) magnetic field strength in phosphate-buffered saline (PBS) to quantify how well they behave as MR contrast agents. […] The relaxivity values for 1 are well within the range of what is expected for a small molecule Gd(III) complex.[34] […] At 7 T, there was little change in r1 for both agents, while both r2 values increased, as expected. […]
solution. These capillaries were imaged using a Bruker PharmaScan 7 T MR imaging spectrometer (Bruker BioSpin, Billerica, MA, USA). T1 relaxation times were measured using a rapid-acquisition rapid-echo (RARE-VTR) T1-map pulse sequence with static TE (10 ms) and […]
parameters were as follows: field of view (FOV) = 25 x 25 mm2, matrix size (MTX) = 256 x 256, number of axial slices = 5, slice thickness (SI) = 1.0 mm, and averages (NEX) = 4. T1 analysis was carried out using the image sequence analysis tool in Paravision 5.0 pl2 software (Bruker, Billerica, MA, USA) with monoexponential curve-fitting of image intensities of selected regions of interest (ROIs) for each axial slice. […]
as §8
(D) GP2 measured at 7 T (E) 1 measured at 1.41 T (F) 1 measured at 7 T. All measurements were taken in PBS at 37 °C (G) 1 measured at 1.41 T with 5 mM GSH (H) GP1 measured at 1.41 T with 5 mM GSH and (I) GP2 measured at 1.41 T with 5 mM GSH.
as §9, §10

N.N.[Cl][Pt][Cl] [Cisplatin, cisplatin]
T1 of cell pellet (HeLa cells [1]): 2236 ± 19 ms | Δ R1 (increase in R1 vs untreated control) (HeLa cells [1]): 2.7% | IC50 (A2780 cells [2]; A2780, 48 h incubation): 7.6 ± 2.3 µM | IC50 (HeLa cells [3]; 48 h incubation): 14.7 ± 1.2 µM | IC50 (MCF-7 cells; MCF-7, 48 h incubation): 22.4 ± 2 µM | T1 of cell pellet (A2780 cells [4]): 2216 ± 26 ms | Δ R1 (increase in R1 vs untreated control) (A2780 cells [4]): 4.6%

[NH2][Pt]([NH2])([OH])([OH])([Cl])[Cl] [Complex 2]
Solubility [5]: insoluble in most solvents

N.N.O=C([O-])C1(C(=O)[O-])CCC1.[Pt+2] [Carboplatin, carboplatin]
Cell accumulation of Pt (A2780 cells [6]): 0.22 ± 0.02 fmol per cell | Cell accumulation of Pt (HeLa cells [7]): 0.60 ± 0.11 fmol per cell | IC50 (A2780 cells [2]; A2780, 72 h incubation): 15.3 ± 5.8 µM | IC50 (HeLa cells [3]; 72 h incubation): 71.2 ± 4.9 µM | IC50 (MCF-7 cells; MCF-7, 72 h incubation): 124 ± 4 µM

[NH2][Pt]1([NH2])([OH])([OH])[O]C(=O)C2(CCC2)C(=O)[O]1 [Complex 3]
Solubility [5]: insoluble in most solvents

O=C([O-])CN1CCN(CCCCCC(=O)O)CCN(CC(=O)[O-])CCN(CC(=O)[O-])CC1.[Gd+3] [Complex 1]
r1 with 5 mM GSH [8]: 4.4 mM⁻¹ s⁻¹ | r1 (T1 relaxivity) ([9]; 1.41 T): 4.1 mM⁻¹ s⁻¹ | r1 (T1 relaxivity) ([9]; 7 T): 4.7 mM⁻¹ s⁻¹ | T1 of cell pellet (HeLa cells [1]): 2178 ± 42 ms | Δ R1 (increase in R1 vs untreated control) (HeLa cells [1]): 5.5% | T1 of cell pellet (A2780 cells [4]): 2170 ± 34 ms | Δ R1 (increase in R1 vs untreated control) (A2780 cells [4]): 6.8%
